Measured values as given in PubChem BioAssay AID504322 (Emory University Molecular Libraries Screening Center, 2011).
The source made the active and inactive calls. How the calls were made is not given here.

Tested on: CHOP reporter cell assay, percent of control
Assay: CHOP reporter inhibitor potency, dose response, cell-based (AID 504322);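 further: CHO cells carrying a CHOP reporter stimulated with tunicamycin to induce ER stress; potency is for inhibition of the stress-induced reporter signal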

SMILES | IC50
CCc1ccc(-c2nc(CN3CCC(C(=O)NCCN(CC)c4ccccc4)CC3)c(C)o2)cc1 | 3.46 µM (inactive)
COc1cc(/C=C(/C#N)c2nc3ccccc3c(=O)[nH]2)ccc1O | > 10 µM (inactive)
CC(C)Oc1cc(NC(=O)CS(=O)CC(=O)Nc2cccc(C(F)(F)F)c2)c(Cl)cc1Cl (centres undefined) | 7.99 µM (inactive)
O=C(CCl)Nc1cccc(-c2cnc3ccccc3n2)c1 | 6.64 µM (inactive)
COc1c(CC=C(C)C)cc(C2CC(=O)c3c(O)cc(O)cc3O2)cc1CC=C(C)C (centres undefined) | > 10 µM (inactive)
CCCCC(CC)Cn1c2nc3ccccc3nc2c2c(=N)oc(C)nc21 (centres undefined) | 7.13 µM (inactive)
C#CC(=O)N(c1cccc(OC)c1)C(C(=O)NC1CCCC1)c1cccs1 (centres undefined) | 4.53 µM
CC(C)c1ccc2c(c1)C1(NN=C(c3ccccc3)S1)C(=O)N2 (centres undefined) | > 10 µM (inactive)
O=C(Nc1ccc(Oc2c(F)c(F)c(F)c(F)c2F)cc1)OC1CCN2Cc3ccccc3N=C12 (centres undefined) | 8.37 µM (inactive)
Cc1ccc(C(C)C)c(OCC(=O)N/N=C/C2CCCCC2)c1 | 9.65 µM (inactive)
O=c1c(Cl)c(Cl)cnn1Cc1nnc(-c2ccccc2Br)o1 | 3.77 µM
C=CCN1C(=O)/C(=C/c2ccc(OC(C)=O)c(OCC)c2[N+](=O)[O-])SC1=S | 5.3 µM (inactive)
COc1ccccc1-n1cc([C@@H]2C[C@H]3CN(c4ccccc4)C(=O)[C@]34CCCN24)cn1 | 1.89 µM
Cc1cccc(OCc2n(CC(=O)OC3CC(C)CCC3C(C)C)c3ccccc3[n+]2C)c1 (centres undefined) | > 10 µM (inactive)
CC(C)(C)c1cc(S(=O)(=O)CCc2ccccn2)cc(C(C)(C)C)c1F | 3.6 µM
O=C(Nc1cc(Cl)ccc1O)c1cc2n(n1)C(C(F)(F)F)CC(c1ccc3c(c1)OCO3)N2 (centres undefined) | 1.97 µM
Cc1ccc2[nH]c(O)c(N=NC(=O)CCc3ccccc3)c2c1Br | 4.27 µM
COc1ccc(/C=C2/C(=O)ON=C2c2ccccc2)cc1OC | > 10 µM (inactive)
O=c1cc(-c2c(F)c(F)c(F)c(F)c2F)oc2c(F)c(F)c(F)c(F)c12 | 3.98 µM
COc1cccc(-c2nnc(NC(=O)c3ccc(S(=O)(=O)N(CC(C)C)CC(C)C)cc3)o2)c1 | 4.13 µM
O=C1C(Nc2ccc(O)cc2)=C/C(=N/S(=O)(=O)c2cccs2)c2ccccc21 | 1.19 µM
Cc1cccc(/C=C2/S/C(=N/N=C3\CC4CCC3(C)C4(C)C)NC2=O)c1 (centres undefined) | 4.97 µM (inactive)
Cc1ccc(S(=O)(=O)Nc2ccc(NC(=O)Nc3cccc(C(F)(F)F)c3)cc2)cc1 | 9.48 µM (inactive)

SMILES | IC50
CC1=CC2/C=C(\C)CCC(O)C(O)/C=C/C(=O)C23C(=O)NC(CC(C)C)C3C1C (centres undefined) | 9.69 µM (inactive)
Cc1cccnc1NC(=O)c1c(O)c2ccccc2n(C)c1=O | > 10 µM (inactive)
CCOC(=O)C(NC(=O)Nc1cccc(C)n1)(OCC(F)(F)F)C(F)(F)F (centres undefined) | > 10 µM (inactive)
C=CCn1c(SCC(=O)c2[nH]c(C)c(C(=O)OC)c2C)nc2scc(-c3ccc(OC)c(OC)c3)c2c1=O | 6.22 µM (inactive)
CC1CCC(C(C)C)C(OCC(O)CN2CCN(Cc3ccccc3)CC2)C1 (centres undefined) | 7 µM (inactive)
Cc1cc(C(C)(C)C)oc1C(=O)N1CCN(C(=O)c2oc(C(C)(C)C)cc2C)CC1 | 9.99 µM (inactive)
CCCCCCCCCCCCCCCC[n+]1ccc(/C=N/O)cc1 | 3.1 µM
O=c1oc2ccccc2c(Cl)c1CN1CCCCC1 | 9.26 µM (inactive)
CCn1c(C)nc2cc(-c3nnc(-c4c(-c5ccccc5)noc4C)o3)ccc21 | 8.88 µM (inactive)
Cc1ccc(NC(=O)c2cc3ccccc3oc2=O)cc1S(=O)(=O)N(C)C | < 0.16 µM
CCOc1cc(/C=C\[N+](=O)[O-])ccc1OCC(=O)Nc1ccccc1C | 4.96 µM (inactive)
O=[N+]([O-])c1ccc(/C=N/N=C/c2ccc([N+](=O)[O-])o2)o1 | 1.78 µM
CCOc1cc(/C=C2/C(=O)ON=C2C)ccc1OCc1ccccc1F | 9.48 µM (inactive)
CC(C)c1ccc(O)c(NC(=S)NC(=O)CCc2ccccc2)c1 | 2.97 µM (inactive)
CCc1nc2c(cnn2-c2ccc(Cl)cc2)c(=O)n1-c1ccc(OC)cc1 | 8.14 µM (inactive)
COc1cc(/C=C(\C#N)c2nc3ccccc3[nH]2)cc(Br)c1OCc1ccc(F)cc1 | 6.3 µM (inactive)
C=C1C(=O)C=C2CN(C(=O)c3ccccc3)[C@@](Cc3ccc(F)cc3)(C(=O)OC)[C@@H]12 | 1.16 µM
CCCN1C=CC(=C2C(=O)c3ccccc3C2=O)C=C1 | 1.78 µM (inactive)
CC1=C(C)/C(=N\OS(=O)(=O)c2ccc(C)cc2)C=CC1=O | 3.68 µM (inactive)
CCc1ccc(NP(=O)(Oc2ccccc2F)Oc2ccccc2F)cc1 | 9.66 µM (inactive)
CC(C)=NOc1cc(NC(=O)CCl)cc([N+](=O)[O-])c1 | 9.61 µM (inactive)
O=S(=O)(NC1CC1)c1ccc(S(=O)(=O)N2CCCC3(CCCCC3)C2)cc1 | 6.79 µM (inactive)
Cc1ccn2cc(-c3cc4ccccc4oc3=O)nc2c1 | 9.15 µM (inactive)

SMILES | IC50
O=C(N/N=C/c1cccc(F)c1)c1c(O)c2ccccc2[nH]c1=O | 6.48 µM (inactive)
COc1ccc2c3c(cccc13)C(=O)N(O)C2=O | 2.57 µM
O=C(Nc1ccc(C(O)(C(F)(F)F)C(F)(F)F)cc1)c1ccc(Cl)c([N+](=O)[O-])c1 | 4.58 µM (inactive)
Oc1[nH]c2ccccc2c1N=NC(=S)NCCc1ccccc1 | 9.82 µM (inactive)
CCc1ccc(OCc2n[nH]c(=S)n2C(C)CCCC(C)C)cc1 (centres undefined) | 2.44 µM
Cc1ccc(-c2nnc(-c3ccc(NC(=O)Cc4cccs4)cc3)o2)cc1 | 8.41 µM (inactive)
Cc1ccc2[nH]c3c(c2c1)CN(C(=O)CN1CCN(c2cccc(C)c2C)CC1)CC3 | 8.33 µM (inactive)
O=C(Nc1ccc(C(F)(F)F)cc1)c1cc(-c2cccnc2)nc2ccc(Br)cc12 | 3.59 µM
CCCOc1ccc(N2C(=O)CC(SC(=NC)Nc3ccc(F)cc3)C2=O)cc1 (centres undefined) | > 10 µM (inactive)
Cc1ccc(OCC(=O)N2N=C(C(F)(F)F)CC2(O)C(C)(C)C)cc1C (centres undefined) | 5.25 µM (inactive)
O=C(Nc1ccc(-c2nc3ccccc3o2)cc1)c1ccc(N2CCOCC2)c([N+](=O)[O-])c1 | 3.54 µM
Cc1cc2c3c(c1)C(C)(c1ccccc1)CC(C)(C)N3C(=O)C21C(C#N)=C(N)OC2=C1C(=O)CC(C)(C)C2 (centres undefined) | > 10 µM (inactive)
C/C(N)=C(/C#N)C(=O)COC(=O)C1CCC(C(C)(C)C)CC1 (centres undefined) | 2.41 µM
CC1(C)C[C@H]2C=C(C=O)[C@]3(C=O)C[C@]3(C)[C@H]2C1 | 0.85 µM
Cc1cc(C)c2c(c1)/C(=N/NS(=O)(=O)c1ccc(Br)cc1)CCC2 | 9.49 µM (inactive)
CC(=O)Nc1ccc(NC2=Nc3ccccc3N3C2=Nc2c(c(C)nn2-c2ccccc2)C3c2ccccc2)cc1 (centres undefined) | 4.24 µM
NC(=O)c1ccc(C(F)(F)F)n(Cc2c(Cl)cccc2Cl)c1=O | 9.4 µM (inactive)
Cn1c2ccccc2c(=O)c2c(=O)n(C3CCCCCC3)c(C3CCCCC3)nc21 | 9.65 µM (inactive)
CCC(C)(C)c1ccc(Oc2ccc(N)cc2)cc1 | < 0.16 µM
CCCC(NCC(O)COc1ccc(-c2ccccc2)cc1)c1ccccc1 (centres undefined) | 9.3 µM (inactive)
Cc1cc(Cl)n2c(nc3ccccc32)c1C#N | > 10 µM (inactive)
Cc1nn(Cc2c(Cl)cccc2Cl)c(C)c1NC(=O)c1cc(C(C)C)on1 | > 10 µM (inactive)
CCN(CCO)c1ncnc2c1sc1nc(C(C)C)c3c(c12)CC(C)(C)OC3 | 9.63 µM (inactive)
